EP0361301A1, “Microbicidal compositions for the disinfection of dental impression materials” (Merz & Co. GmbH & Co., priority 1988, dated 1990)

System: Human Immunodeficiency Virus (HIV bzw. auch HTLV III oder LAV)
Test: HIV inactivation in suspension test versus 0.7 % formaldehyde
Details: 0,7%ig
Text: Die Wirksamkeit der erfindungsgemässen Zubereitungen gegen den eine AIDS-Infektion verursachenden Human Immunodeficiency Virus (HIV bzw. auch HTLV III oder LAV) im Vergleich zu 0,7%igem Formaldehyd ergab eine um eine Zehnerpotenz höhere Inaktivierung des HIV bei 1%iger Konzentration der erfindungsgemässen Zubereitung 1 in nur 5 Minuten.

**Q.** `C=O` [Formaldehyd] was tested. Which “toxischer Effekt im Suspensionsversuch” value did it give?
**A.** toxischen Effektes
